Patent publication US8178522B2, “Thiazoles” (Hoffmann-La Roche Inc., priority 2009, dated 2012)

Target: T1, GABA A α5 (α5β3γ2) (Homo sapiens, UniProt P18507+P31644)
T1 construct: expressed in transfected cells; host or cells: HEK293, transiently transfected; membrane preparation
Assay: [3H]flumazenil competition binding, human GABA A α5 receptor
Settings: not given
Protocol: Membrane Preparation and Binding Assay
The affinity of compounds at GABA A receptor subtypes was measured by competition for [3H]flumazenil (85 Ci/mmol; Roche) binding to HEK293 cells expressing rat (stably transfected) or human (transiently transfected) receptors of compositional α1β3γ2, α2β3γ2, α3β3γ2 and α5β3γ2.
Cell pellets were suspended in Krebs-tris buffer (4.8 mM KCl, 1.2 mM CaCl2, 1.2 mM MgCl2, 120 mM NaCl, 15 mM Tris; pH 7.5; binding assay buffer), homogenized by polytron for ca. 20 sec on ice and centrifuged for 60 min at 4° C. (50000 g; Sorvall, rotor: SM24=20000 rpm). The cell pellets were re-suspended in Krebs-tris buffer and homogenized by polytron for ca. 15 sec on ice. Protein was measured (Bradford method, Bio-Rad) and aliquots of 1 mL were prepared and stored at −80° C.
Assays were incubated to equilibrium for 1 hour at 4° C. and harvested onto GF/C uni-filters (Packard) by filtration using a Packard harvester and washing with ice-cold wash buffer (50 mM Tris; pH 7.5). After drying, filter-retained radioactivity was detected by liquid scintillation counting. Ki values were calculated using Excel-Fit (Microsoft) and are the means of two determinations.

| Ki [nM] | SMILES |
| --- | --- |
| 12.7 | Cc1onc(-c2ccc(F)cn2)c1CCc1ncc(C(=O)NC2CC2)s1 [Example 42, 2-{2-[3-(5-Fluoro-pyridin-2-yl)-5-methyl-isoxazol-4-yl]-ethyl}-thiazole-5-carboxylic acid cyclopropylamide] |

Same assay, conditions: human receptor α5β3γ2 transiently transfected in HEK293 cells; competition for [3H]flumazenil 0.5 nM; 1 hour at 4° C.; means of two determinations; read-out: hKi GABA A α5

| SMILES | Ki [nM] |
| --- | --- |
| Cc1onc(-c2ccc(F)cn2)c1CCc1ncc(C(=O)NCC2CC2)s1 [Example 43, 2-{2-[3-(5-Fluoro-pyridin-2-yl)-5-methyl-isoxazol-4-yl]-ethyl}-thiazole-5-carboxylic acid cyclopropylmethyl-amide] | 18.6 |
| Cc1onc(-c2ccc(F)cn2)c1CCc1ncc(C(=O)NCC(F)(F)F)s1 [Example 44, 2-{2-[3-(5-Fluoro-pyridin-2-yl)-5-methyl-isoxazol-4-yl]-ethyl}-thiazole-5-carboxylic acid (2,2,2-trifluoro-ethyl)-amide] | 15.7 |
| Cc1onc(-c2ccc(F)cn2)c1CCc1ncc(C(=O)NCCO)s1 [Example 45, 2-{2-[3-(5-Fluoro-pyridin-2-yl)-5-methyl-isoxazol-4-yl]-ethyl}-thiazole-5-carboxylic acid (2-hydroxy-ethyl)-amide] | 26.3 |
| CNC(=O)c1cnc(CCc2c(-c3ccc(F)cn3)noc2C)s1 [Example 47, 2-{2-[3-(5-Fluoro-pyridin-2-yl)-5-methyl-isoxazol-4-yl]-ethyl}-thiazole-5-carboxylic acid methylamide] | 26.3 |
| CCCCc1noc(C)c1CCc1nc(C)c(C(=O)NC(C)C)s1 [Example 48, 2-[2-(3-Butyl-5-methyl-isoxazol-4-yl)-ethyl]-4-methyl-thiazole-5-carboxylic acid iso-propylamide] | 23.1 |
| CCCCc1noc(C)c1CCc1nc(C)c(C(=O)NC(CO)CO)s1 [Example 53, 2-[2-(3-Butyl-5-methyl-isoxazol-4-yl)-ethyl]-4-methyl-thiazole-5-carboxylic acid (2-hydroxy-1-hydroxymethyl-ethyl)-amide] | 18.7 |
| CCCCc1noc(C)c1CCc1nc(C)c(C(=O)NCC(C)O)s1 (stereo not drawn) [Example 56, 2-[2-(3-Butyl-5-methyl-isoxazol-4-yl)-ethyl]-4-methyl-thiazole-5-carboxylic acid (2-hydroxy-propyl)-amide] | 16.9 |
| CCCCc1noc(C)c1CCc1ncc(C(=O)NC(C)C)s1 [Example 57, 2-[2-(3-Butyl-5-methyl-isoxazol-4-yl)-ethyl]-thiazole-5-carboxylic acid isopropylamide] | 39.2 |

Second part, the compound after the results:

| Ki [nM] | SMILES |
| --- | --- |
| 18.1 | CCNC(=O)c1cnc(CCc2c(-c3ccc(F)cn3)noc2C)s1 [Example 46, 2-{2-[3-(5-Fluoro-pyridin-2-yl)-5-methyl-isoxazol-4-yl]-ethyl}-thiazole-5-carboxylic acid ethylamide] |
| 43.3 | CCCCc1noc(C)c1CCc1nc(C)c(C(=O)NCC(C)(C)O)s1 [Example 49, 2-[2-(3-Butyl-5-methyl-isoxazol-4-yl)-ethyl]-4-methyl-thiazole-5-carboxylic acid (2-hydroxy-2-methyl-propyl)-amide] |
| 16.8 | CCCCc1noc(C)c1CCc1nc(C)c(C(=O)NC(C)CO)s1 (stereo not drawn) [Example 50, 2-[2-(3-Butyl-5-methyl-isoxazol-4-yl)-ethyl]-4-methyl-thiazole-5-carboxylic acid (2-hydroxy-1-methyl-ethyl)-amide] |
| 11.1 | CCCCc1noc(C)c1CCc1nc(C)c(C(=O)NC2CCOCC2)s1 [Example 51, 2-[2-(3-Butyl-5-methyl-isoxazol-4-yl)-ethyl]-4-methyl-thiazole-5-carboxylic acid (tetra-hydro-pyran-4-yl)-amide] |
| 15.9 | CCCCc1noc(C)c1CCc1nc(C)c(C(=O)N[C@@H](C)CO)s1 [Example 54, 2-[2-(3-Butyl-5-methyl-isoxazol-4-yl)-ethyl]-4-methyl-thiazole-5-carboxylic acid ((S)-2-hydroxy-1-methyl-ethyl)-amide] |
| 35.6 | CCCCc1noc(C)c1CCc1nc(C)c(C(=O)N[C@H](C)CO)s1 [Example 55, 2-[2-(3-Butyl-5-methyl-isoxazol-4-yl)-ethyl]-4-methyl-thiazole-5-carboxylic acid ((R)-2-hydroxy-1-methyl-ethyl)-amide] |
